Experimental data as given in patent publication US8163771B2, “11 β-HSD1 modulators” (Exelixis, Inc., priority 2008, dated 2012).
pIC50: −log10 of the molar value.

Molecular target: T1, recombinant human 11 β-HSD1 (Homo sapiens, UniProt P28845)
T1 construct: made in house; host or cells: E. coli
Test: 11 β-HSD1 SPA Assay (Scintillation Proximity Assay)
Assay type: biochemical
Summary of the method: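 E. coli-expressed human enzyme (30-100 nM) with tritiated cortisone 40 nM and NADPH 1 mM in HEPES buffer pH7.4, 2 hours at room temperature. Stopped with protein A SPA beads carrying anti-cortisol antibody and glycyrrhetinic acid; counted after overnight incubation. IC50 from percent inhibition between no-enzyme and no-compound signals.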

T1 sequence (P28845 whole entry): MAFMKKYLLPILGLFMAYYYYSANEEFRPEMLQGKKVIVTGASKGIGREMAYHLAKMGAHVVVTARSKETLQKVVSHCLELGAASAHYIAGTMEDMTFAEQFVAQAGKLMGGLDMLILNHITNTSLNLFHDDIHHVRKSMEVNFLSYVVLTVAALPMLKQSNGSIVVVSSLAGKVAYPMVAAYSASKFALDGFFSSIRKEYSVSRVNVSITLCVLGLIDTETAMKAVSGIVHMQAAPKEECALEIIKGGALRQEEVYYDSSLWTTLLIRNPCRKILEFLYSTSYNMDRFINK

`CC(C)(Oc1cc(Cl)c(F)cc1Cl)C(=O)N[C@H]1C[C@H]2CC[C@@H](C1)N2c1ncc(C(=O)NCC(F)(F)F)cc1F` [Example 162, 6-[3-endo-({2-[(2,5-dichloro-4-fluorophenyl)oxy]-2-methylpropanoyl}amino)-8-azabicyclo[3.2.1]oct-8-yl]-5-fluoro-N-(2,2,2-trifluoroethyl)pyridine-3-carboxamide] was tested. Which pIC50 did it give?
Its pIC50 is over 6.70.

With `CC(C)(Oc1ccc(Cl)cc1Cl)C(=O)N[C@H]1C[C@H]2CC[C@@H](C1)N2c1ccc(C(=O)NC2CC2)nc1` [Example 163, N-cyclopropyl-5-[3-endo-({2-[(2,4-dichlorophenyl)oxy]-2-methylpropanoyl}amino)-8-azabicyclo[3.2.1]oct-8-yl]pyridine-2-carboxamide] as the compound, how does the pIC50 read?
The pIC50 was over 6.70.

How did the pIC50 turn out when `CC(C)(Oc1ccccc1C(F)(F)F)C(=O)N[C@H]1C[C@H]2CC[C@@H](C1)N2c1ccc(C(N)=O)cn1` [Example 164, 6-{3-endo-[(2-methyl-2-{[2-(trifluoromethyl)phenyl]oxy}propanoyl)amino]-8-azabicyclo[3.2.1]oct-8-yl}pyridine-3-carboxamide] was run?
Its pIC50 is over 6.70.

How did the pIC50 turn out when `CC(C)(C(=O)N[C@H]1C[C@H]2CC[C@@H](C1)N2c1ccc(C(N)=O)cn1)c1ccc(F)c(F)c1` [Example 165, 6-(3-endo-{[2-(3,4-difluorophenyl)-2-methylpropanoyl]amino}-8-azabicyclo[3.2.1]oct-8-yl)pyridine-3-carboxamide] was run?
The pIC50 was over 6.70.

How did the pIC50 turn out when `CC(C)(Oc1ccc(Cl)c(Cl)c1)C(=O)N[C@H]1C[C@H]2CC[C@@H](C1)N2c1ccc(C(=O)NCC(F)(F)F)cc1` [Example 166, 4-[3-endo-({2-[(3,4-dichlorophenyl)oxy]-2-methylpropanoyl}amino)-8-azabicyclo[3.2.1]oct-8-yl]-N-(2,2,2-trifluoroethyl)benzamide] was run?
The pIC50 was over 6.70.

`CC(C)(Oc1ccc(Cl)c(F)c1)C(=O)N[C@H]1C[C@H]2CC[C@@H](C1)N2c1ccc(C(=O)NCC(F)(F)F)cc1` [Example 167, 4-[3-endo-({2-[(4-chloro-3-fluorophenyl)oxy]-2-methylpropanoyl}amino)-8-azabicyclo[3.2.1]oct-8-yl]-N-(2,2,2-trifluoroethyl)benzamide] was tested. Which pIC50 did it give?
Its pIC50 is over 6.70.

With `CC(C)(Oc1ccc(F)cc1C(F)(F)F)C(=O)N[C@H]1C[C@H]2CC[C@@H](C1)N2c1ccc(C(N)=O)cn1` [Example 168, 6-{3-endo-[(2-{[4-fluoro-2-(trifluoromethyl)phenyl]oxy}-2-methylpropanoyl)amino]-8-azabicyclo[3.2.1]oct-8-yl}pyridine-3-carboxamide] as the compound, how does the pIC50 read?
The pIC50 was over 6.70.

How did the pIC50 turn out when `CC(C)(Oc1ccc(Cl)cc1C(F)(F)F)C(=O)N[C@H]1C[C@H]2CC[C@@H](C1)N2c1ccc(C(N)=O)cn1` [Example 169, 6-{3-endo-[(2-{[4-chloro-2-(trifluoromethyl)phenyl]oxy}-2-methylpropanoyl)amino]-8-azabicyclo[3.2.1]oct-8-yl}pyridine-3-carboxamide] was run?
The pIC50 was over 6.70.

How did the pIC50 turn out when `CC(C)(Oc1ccc(Cl)cc1Cl)C(=O)N[C@H]1C[C@H]2CC[C@@H](C1)N2c1ccc(C(=O)NCC(F)(F)F)nc1` [Example 170, 5-[3-endo-({2-[(2,4-dichlorophenyl)oxy]-2-methylpropanoyl}amino)-8-azabicyclo[3.2.1]oct-8-yl]-N-(2,2,2-trifluoroethyl)pyridine-2-carboxamide] was run?
The pIC50 was over 6.70.

`CC(C)(Oc1ccc(Cl)cc1Cl)C(=O)N[C@H]1C[C@H]2CC[C@@H](C1)N2c1cc(C(=O)NCC(F)(F)F)ccn1` [Example 171, 2-[3-endo-({2-[(2,4-dichlorophenyl)oxy]-2-methylpropanoyl}amino)-8-azabicyclo[3.2.1]oct-8-yl]-N-(2,2,2-trifluoroethyl)pyridine-4-carboxamide] was tested. Which pIC50 did it give?
Its pIC50 is over 5.70.

`CC(C)(Oc1ccc(C(F)(F)F)cc1)C(=O)N[C@H]1C[C@H]2CC[C@@H](C1)N2c1ccc(C(N)=O)cn1` [Example 172, 6-{3-endo-[(2-methyl-2-{[4-(trifluoromethyl)phenyl]oxy}propanoyl)amino]-8-azabicyclo[3.2.1]oct-8-yl}pyridine-3-carboxamide] was tested. Which pIC50 did it give?
The pIC50 was over 6.70.

How did the pIC50 turn out when `CC(C)(Oc1ccc(F)cc1Cl)C(=O)N[C@H]1C[C@H]2CC[C@@H](C1)N2c1ccc(S(C)(=O)=O)cc1` [Example 173, 2-[(2-chloro-4-fluorophenyl)oxy]-2-methyl-N-{8-[4-(methylsulfonyl)phenyl]-8-azabicyclo[3.2.1]oct-3-endo-yl}propanamide] was run?
The pIC50 was over 6.70.

`CC(C)(Oc1cc(Cl)c(F)cc1Cl)C(=O)N[C@H]1C[C@H]2CC[C@@H](C1)N2c1ccc(S(C)(=O)=O)cc1` [Example 174, 2-[(2,5-dichloro-4-fluorophenyl)oxy]-2-methyl-N-{8-[4-(methylsulfonyl)phenyl]-8-azabicyclo[3.2.1]oct-3-endo-yl}propanamide] was tested. Which pIC50 did it give?
Its pIC50 is over 5.70.

`CC(C)(Oc1ncc(Cl)cc1Cl)C(=O)N[C@H]1C[C@H]2CC[C@@H](C1)N2c1ccc(S(C)(=O)=O)cc1` [Example 175, 2-[(3,5-dichloropyridin-2-yl)oxy]-2-methyl-N-{8-[4-(methylsulfonyl)phenyl]-8-azabicyclo[3.2.1]oct-3-endo-yl}propanamide] was tested. Which pIC50 did it give?
Its pIC50 is over 6.70.

`CC(C)(Oc1ccc(F)cc1C(F)(F)F)C(=O)N[C@H]1C[C@H]2CC[C@@H](C1)N2c1ccc(S(C)(=O)=O)cn1` [Example 176, 2-{[4-fluoro-2-(trifluoromethyl)phenyl]oxy}-2-methyl-N-{8-[5-(methylsulfonyl)pyridin-2-yl]-8-azabicyclo[3.2.1]oct-3-endo-yl}propanamide] was tested. Which pIC50 did it give?
Its pIC50 is over 6.70.

`CC(C)(Oc1ccc(F)cc1C(F)(F)F)C(=O)N[C@H]1C[C@H]2CC[C@@H](C1)N2c1ccc(S(N)(=O)=O)cn1` [Example 177, N-{8-[5-(aminosulfonyl)pyridin-2-yl]-8-azabicyclo[3.2.1]oct-3-endo-yl}-2-{[4-fluoro-2-(trifluoromethyl)phenyl]oxy}-2-methylpropanamide] was tested. Which pIC50 did it give?
The pIC50 was over 6.70.

With `CC(C)(Oc1c(Cl)cc(F)cc1Cl)C(=O)N[C@H]1C[C@H]2CC[C@@H](C1)N2c1ccc(S(C)(=O)=O)cn1` [Example 178, 2-[(2,6-dichloro-4-fluorophenyl)oxy]-2-methyl-N-{8-[5-(methylsulfonyl)pyridin-2-yl]-8-azabicyclo[3.2.1]oct-3-endo-yl}propanamide] as the compound, how does the pIC50 read?
Its pIC50 is over 6.70.

With `CC(C)(Oc1c(Cl)cc(F)cc1C(F)(F)F)C(=O)N[C@H]1C[C@H]2CC[C@@H](C1)N2c1ccc(S(C)(=O)=O)cn1` [Example 179, 2-{[2-chloro-4-fluoro-6-(trifluoromethyl)phenyl]oxy}-2-methyl-N-{8-{5-(methylsulfonyl)pyridin-2-yl]-8-azabicyclo[3.2.1]oct-3-endo-yl}propanamide] as the compound, how does the pIC50 read?
The pIC50 was over 6.70.

With `COc1ccc(OC(C)(C)C(=O)N[C@H]2C[C@H]3CC[C@@H](C2)N3c2ccc(S(C)(=O)=O)cn2)cc1` [Example 180, 2-methyl-2-{[4-(methyloxy)phenyl]oxy}-N-{8-[5-(methylsulfonyl)pyridin-2-yl]-8-azabicyclo[3.2.1]oct-3-endo-yl}propanamide] as the compound, how does the pIC50 read?
The pIC50 was over 6.70.

`COc1ccc(OC(C)(C)C(=O)N[C@H]2C[C@H]3CC[C@@H](C2)N3c2ccc(S(N)(=O)=O)cn2)cc1` [Example 181, N-{8-[5-(aminosulfonyl)pyridin-2-yl]-8-azabicyclo[3.2.1]oct-3-endo-yl}-2-methyl-2-{[4-(methyloxy)phenyl]oxy}propanamide] was tested. Which pIC50 did it give?
Its pIC50 is over 6.70.

With `COc1ccc(OC(C)(C)C(=O)N[C@H]2C[C@H]3CC[C@@H](C2)N3c2ccc(S(C)(=O)=O)cc2)cc1` [Example 182, 2-methyl-2-{[4-(methyloxy)phenyl]oxy}-N-{8-[4-(methylsulfonyl)phenyl]-8-azabicyclo[3.2.1]oct-3-endo-yl}propanamide] as the compound, how does the pIC50 read?
Its pIC50 is over 5.70.

How did the pIC50 turn out when `CC(C)(Oc1ccc(C(F)(F)F)cc1Cl)C(=O)N[C@H]1C[C@H]2CC[C@@H](C1)N2c1ccc(C(N)=O)cn1` [Example 183, 6-{3-endo-[(2-{[2-chloro-4-(trifluoromethyl)phenyl]oxy}-2-methylpropanoyl)amino]-8-azabicyclo[3.2.1]oct-8-yl}pyridine-3-carboxamide] was run?
Its pIC50 is over 6.70.

`CC(C)(Oc1ccc(C(F)(F)F)cc1Cl)C(=O)N[C@H]1C[C@H]2CC[C@@H](C1)N2c1ccc(C(=O)NCC(F)(F)F)cn1` [Example 184, 6-{3-endo-[(2-{[2-chloro-4-(trifluoromethyl)phenyl]oxy}-2-methylpropanoyl)amino]-8-azabicyclo[3.2.1]oct-8-yl}-N-(2,2,2-trifluoroethyl)pyridine-3-carboxamide] was tested. Which pIC50 did it give?
Its pIC50 is over 6.70.

How did the pIC50 turn out when `CC(C)(Oc1ccc(Cl)c(C(F)(F)F)c1)C(=O)N[C@H]1C[C@H]2CC[C@@H](C1)N2c1ccc(C(N)=O)cn1` [Example 185] was run?
Its pIC50 is over 6.70.

How did the pIC50 turn out when `CC(C)(Oc1ccc(Cl)c(C(F)(F)F)c1)C(=O)N[C@H]1C[C@H]2CC[C@@H](C1)N2c1ccc(C(=O)NCC(F)(F)F)cn1` [Example 186, 6-{3-endo-[(2-{[4-chloro-3-(trifluoromethyl)phenyl]oxy}-2-methylpropanoyl)amino]-8-azabicyclo[3.2.1]oct-8-yl}-N-(2,2,2-trifluoroethyl)pyridine-3-carboxamide] was run?
The pIC50 was over 6.70.

`CC(C)(Oc1ccc(F)c(C(F)(F)F)c1)C(=O)N[C@H]1C[C@H]2CC[C@@H](C1)N2c1ccc(C(N)=O)cn1` [Example 187, 6-{3-endo-[(2-{[4-fluoro-3-(trifluoromethyl)phenyl]oxy}-2-methylpropanoyl)amino]-8-azabicyclo[3.2.1]oct-8-yl}pyridine-3-carboxamide] was tested. Which pIC50 did it give?
The pIC50 was over 6.70.

How did the pIC50 turn out when `CC(C)(Oc1ccc(F)c(C(F)(F)F)c1)C(=O)N[C@H]1C[C@H]2CC[C@@H](C1)N2c1ccc(C(=O)NCC(F)(F)F)cn1` [Example 188, 6-{3-endo-[(2-{[4-fluoro-3-(trifluoromethyl)phenyl]oxy}-2-methylpropanoyl)amino]-8-azabicyclo[3.2.1]oct-8-yl}-N-(2,2,2-trifluoroethyl)pyridine-3-carboxamide] was run?
Its pIC50 is over 6.70.

With `CC(C)(Oc1cc(C(F)(F)F)ccc1F)C(=O)N[C@H]1C[C@H]2CC[C@@H](C1)N2c1ccc(C(N)=O)cn1` [Example 189, 6-{3-endo-[(2-{[2-fIuoro-5-(trifluoromethyl)phenyl]oxy}-2-methylpropanoyl)amino]-8-azabicyclo[3.2.1]oct-8-yl}pyridine-3-carboxamide] as the compound, how does the pIC50 read?
Its pIC50 is over 6.70.
